Drawing on patent US20230279020A9, “CARM1 INHIBITORS AND USES THEREOF” (Epizyme, Inc., priority 2013, published 2023), this text covers IC50 for 62 molecules.

Each structure is given as a SMILES string. Bounds are passed on as bounds.

Sequence of Human CARM1 (PRMT4) (Q86X55 other isoform, or with tags, fused parts or gaps isoform Q86X55-1): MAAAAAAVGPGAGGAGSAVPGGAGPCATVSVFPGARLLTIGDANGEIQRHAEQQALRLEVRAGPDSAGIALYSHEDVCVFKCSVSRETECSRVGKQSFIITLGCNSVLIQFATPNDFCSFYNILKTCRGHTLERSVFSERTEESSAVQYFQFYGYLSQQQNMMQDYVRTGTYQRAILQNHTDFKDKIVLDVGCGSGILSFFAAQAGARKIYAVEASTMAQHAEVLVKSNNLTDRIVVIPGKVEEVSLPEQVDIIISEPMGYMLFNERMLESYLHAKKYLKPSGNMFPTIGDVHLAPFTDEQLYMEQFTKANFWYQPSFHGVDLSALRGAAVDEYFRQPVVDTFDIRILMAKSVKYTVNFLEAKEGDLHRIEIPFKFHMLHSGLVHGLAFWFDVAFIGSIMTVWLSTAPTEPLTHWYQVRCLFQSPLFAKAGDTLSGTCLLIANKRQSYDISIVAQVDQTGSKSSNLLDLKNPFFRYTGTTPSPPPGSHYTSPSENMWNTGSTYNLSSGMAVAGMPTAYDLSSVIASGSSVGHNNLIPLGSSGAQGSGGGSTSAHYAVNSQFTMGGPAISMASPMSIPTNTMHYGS

This assay addresses Human CARM1 (PRMT4) (Homo sapiens (Human), UniProt Q86X55). The experiment in a line: CARM1 enzyme assay on peptide substrate (3H-SAM Flashplate). The conditions noted are these: Biochemical potencies, classification codes; read-out: Biochem IC50.
The IC50 is the concentration that gives 50% inhibition. Consider `CNCC(O)COc1cccc(-c2nc(NC3CN(C(=O)OC)C3)c(C)c(-c3c(C)noc3C)n2)c1` (centres unmarked) [Example 275-1a], for which the IC50 was under 100 nM.

`CNC[C@@H](O)COc1ccc(F)c(-c2nc(-c3c(C)noc3C)cc(N3Cc4cnn(C)c4C3)n2)c1` [Example 275-3]: the 50% inhibitory concentration (IC50) was under 100 nM.

For the molecule `CCc1onc(C)c1-c1nc(-c2cccc(OCC(O)CNC)c2)nc(NC2CCOCC2)c1C` (centres unmarked) [Example 276-1a], the IC50 is under 100 nM.

`CCOC(=O)N1CCOC[C@@H]1CNc1nc(-c2cccc(OC[C@H](O)CNC)c2)nc(-c2c(C)noc2C)c1C` [Example 277-1a]: the IC50 is under 100 nM.

`CNC[C@@H](O)COc1ccc(F)c(-c2nc(-c3c(C)noc3C)cc(N3CC4(CCOCC4)C3)n2)c1` [Example 277-3]: the half-inhibitory concentration (IC50) is under 100 nM.

Turning to `CCOC(=O)N1CCOC[C@@H]1CNc1nc(-c2cccc(OC[C@@H](O)CNC)c2)nc(-c2c(C)noc2C)c1C` [Example 278-1a], the IC50 is under 100 nM.

As to `CNC[C@@H](O)COc1cccc(-c2nc(NC3CCN(C(=O)OC)CC3)cc(-c3c(C)nnn3C)n2)c1` [Example 278-3], the IC50 was under 100 nM.

As for `CNCC(O)COc1cccc(-c2nc(N[C@H]3CCOC[C@@H]3F)c(C)c(-c3c(C)noc3C)n2)c1` (some centres unmarked) [Example 279-1a], the IC50 is under 100 nM.

For `CNC[C@@H](O)COc1ccc(Cl)c(-c2nc(-c3c(C)noc3C)c(C)c(N3Cc4[nH]c(=O)[nH]c(=O)c4C3)n2)c1` [Example 279-3], the concentration for half-maximal inhibition (IC50) is under 100 nM.

For `CNCC(O)COc1cccc(-c2nc(NC3C[C@@H](O)[C@H](O)C3)c(C)c(-c3c(C)noc3C)n2)c1` (some centres unmarked) [Example 280-1a], the half-maximal inhibitory concentration (IC50) is under 100 nM.

Turning to `CNC[C@@H](O)COc1ccc(F)c(-c2nc(-c3c(C)noc3C)c(C)c(N3CC4(CCN(CC(F)F)CC4)C3)n2)c1` [Example 280-3], the IC50 was under 100 nM.

In the case of `CNCC(O)COc1cccc(-c2nc(N[C@H]3CCOC3=O)c(C)c(-c3c(C)noc3C)n2)c1` (some centres unmarked) [Example 281-1a], the IC50 was under 100 nM.

Turning to `CNC[C@@H](O)COc1ccc(F)c(-c2nc(-c3c(C)noc3C)c(C)c(N3CC4(CCN(C(=O)OC(C)C)CC4)C3)n2)c1` [Example 281-3], the IC50 was under 100 nM.

Regarding `CNCC(O)COc1cccc(-c2nc(N[C@H]3[C@@H]4CN(C(=O)OC)C[C@@H]43)c(C)c(-c3c(C)noc3C)n2)c1` (some centres unmarked) [Example 282-1a], the half-maximal inhibitory concentration (IC50) was under 100 nM.

For `CCOC(=O)N1CCC2(CC1)CN(c1nc(-c3cc(OC[C@H](O)CNC)ccc3F)nc(-c3c(C)noc3C)c1C)C2` [Example 282-3], the 50% inhibitory concentration (IC50) was under 100 nM.

As to `CNCC(O)COc1cccc(-c2nc(NCC3CCN(C4CC4)CC3)c(C)c(-c3c(C)noc3C)n2)c1` (centres unmarked) [Example 283-1a], the concentration for half-maximal inhibition (IC50) was under 100 nM.

Turning to `CNC[C@@H](O)COc1ccc(Cl)c(-c2nc(-c3c(C)noc3C)c(C)c(N3CC4(CCN(CC(F)F)CC4)C3)n2)c1` [Example 283-3], the 50% inhibitory concentration (IC50) was under 100 nM.

In the case of `CNCC(O)COc1cccc(-c2nc(OCC3CCN(C(=O)OC)CC3)c(C)c(-c3c(C)noc3C)n2)c1` (centres unmarked) [Example 284-1a], the half-inhibitory concentration (IC50) is under 100 nM.

`CNC[C@@H](O)COc1ccc(Cl)c(-c2nc(-c3c(C)noc3C)c(C)c(N3CC4(CCN(C(=O)OC(C)C)CC4)C3)n2)c1` [Example 284-3]: the IC50 was under 100 nM.

On to `CNCC(O)COc1cccc(-c2nc(OCC3CCN(C(=O)N(C)C)CC3)c(C)c(-c3c(C)noc3C)n2)c1` (centres unmarked) [Example 285-1a], for which the IC50 is under 100 nM.

Take `CCOC(=O)N1CCC2(CC1)CN(c1nc(-c3cc(OC[C@H](O)CNC)ccc3Cl)nc(-c3c(C)noc3C)c1C)C2` [Example 285-3]: the IC50 is under 100 nM.

As to `CNCC(O)COc1cccc(-c2nc(OCC3CCN(S(C)(=O)=O)CC3)c(C)c(-c3c(C)noc3C)n2)c1` (centres unmarked) [Example 286-1a], the IC50 is under 100 nM.

Consider `CNC[C@@H](O)COc1ccc(Cl)c(-c2nc(-c3c(C)noc3C)c(C)c(N3CC4(CCN(C(=O)OC(C)C)C4)C3)n2)c1` [Example 286-3], for which the concentration for half-maximal inhibition (IC50) was under 100 nM.

`CNCC(O)COc1cccc(-c2nc(OCC3CCN(C(C)=O)CC3)c(C)c(-c3c(C)noc3C)n2)c1` (centres unmarked) [Example 287-1a]: the IC50 was under 100 nM.

For the molecule `CCOC(=O)N1CCC2(C1)CN(c1nc(-c3cc(OC[C@H](O)CNC)ccc3Cl)nc(-c3c(C)noc3C)c1C)C2` [Example 287-3], the 50% inhibitory concentration (IC50) is under 100 nM.

As to `CNCC(O)COc1cccc(-c2nc(OCC3CCN(CC(F)F)CC3)c(C)c(-c3c(C)noc3C)n2)c1` (centres unmarked) [Example 288-1a], the 50% inhibitory concentration (IC50) is under 100 nM.

With `CNC[C@@H](O)COc1ccc(Cl)c(-c2nc(-c3c(C)noc3C)c(C)c(N3CCC4(CCOC4)C3)n2)c1` (some centres unmarked) [Example 288-3], the IC50 was under 100 nM.

On to `CNCC(O)COc1cccc(-c2nc(OCC3CCNCC3)c(C)c(-c3c(C)noc3C)n2)c1` (centres unmarked) [Example 289-1a], for which the IC50 was under 100 nM.

On to `CNC[C@@H](O)COc1ccc(Cl)c(-c2nc(-c3c(C)noc3C)c(C)c(N3CCC4(CCCO4)C3)n2)c1` (some centres unmarked) [Example 289-3], for which the IC50 is under 100 nM.

For `CNCC(O)COc1cccc(-c2nc(NC3CCOC(C)(C)C3)c(C)c(-c3c(C)noc3C)n2)c1` (centres unmarked) [Example 290-1a], the IC50 was under 100 nM.

Consider `CNC[C@@H](O)COc1ccc(Cl)c(-c2nc(-c3c(C)noc3C)c(C)c(N3CC4(CCCCO4)C3)n2)c1` [Example 290-3], for which the half-maximal inhibitory concentration (IC50) is under 100 nM.

With `CNCC(O)COc1cccc(-c2nc(N[C@@H]3CCOC3=O)c(C)c(-c3c(C)noc3C)n2)c1` (some centres unmarked) [Example 291-1a], the half-maximal inhibitory concentration (IC50) is under 100 nM.

On to `CNCC(O)COc1cccc(-c2nc(NC3CCC3)c(C)c(-c3c(C)noc3C)n2)c1` (centres unmarked) [Example 292-1a], for which the concentration for half-maximal inhibition (IC50) is under 100 nM.

As to `CNCC(O)COc1cccc(-c2nc(NC3CC3)c(C)c(-c3c(C)noc3C)n2)c1` (centres unmarked) [Example 293-1a], the 50% inhibitory concentration (IC50) was under 100 nM.

As for `CNC[C@@H](O)COc1ccc(Cl)c(-c2nc(-c3c(C)noc3C)c(C)c(N3Cc4cn(S(C)(=O)=O)nc4C3)n2)c1` [Example 293-3], the IC50 is under 100 nM.

Consider `CNCC(O)COc1cccc(-c2nc(-c3c(C)noc3C)c(C)c(N3CCC4(CC3)CN(C3CC3)C4)n2)c1` (centres unmarked) [Example 294-1a], for which the half-maximal inhibitory concentration (IC50) was under 100 nM.

On to `CNC[C@@H](O)COc1ccc(F)c(-c2nc(-c3c(C)noc3C)c(Cl)c(N3CC4(CCOCC4)C3)n2)c1` [Example 294-3], for which the IC50 was under 100 nM.

With `CCOC(=O)N1CC2(CCCN(c3nc(-c4cccc(OCC(O)CNC)c4)nc(-c4c(C)noc4C)c3C)C2)C1` (centres unmarked) [Example 295-1a], the 50% inhibitory concentration (IC50) was under 100 nM.

With `CNC[C@@H](O)COc1ccc(F)c(-c2nc(-c3c(C)noc3C)c(Cl)c(N3Cc4nccnc4C3)n2)c1` [Example 295-3], the concentration for half-maximal inhibition (IC50) was under 100 nM.

As for `CCS(=O)(=O)N1CC2(CCCN(c3nc(-c4cccc(OCC(O)CNC)c4)nc(-c4c(C)noc4C)c3C)C2)C1` (centres unmarked) [Example 296-1a], the 50% inhibitory concentration (IC50) is under 100 nM.

Turning to `CNC[C@@H](O)COc1ccc(Cl)c(-c2nc(-c3c(C)noc3C)c(C)c(N3Cc4cc(C)cnc4C3)n2)c1` [Example 296-3], the concentration for half-maximal inhibition (IC50) is under 100 nM.

For the molecule `CNCC(O)COc1cccc(-c2nc(-c3c(C)noc3C)c(C)c(N3CCCC4(CN(C(=O)N(C)C)C4)C3)n2)c1` (centres unmarked) [Example 297-1a], the concentration for half-maximal inhibition (IC50) was under 100 nM.

In the case of `CNC[C@@H](O)COc1ccc(Cl)c(-c2nc(-c3c(C)noc3C)c(F)c(N3Cc4nccnc4C3)n2)c1` [Example 297-3], the IC50 was under 100 nM.

Consider `CNCC(O)COc1cccc(-c2nc(-c3c(C)noc3C)c(C)c(N3CC(CO)(CNC(=O)N(C)C)C3)n2)c1` (centres unmarked) [Example 298-1a], for which the IC50 was under 100 nM.

As to `CNCC(O)COc1cccc(-c2nc(-c3c(C)noc3C)c(C)c(N3CC4(CN(C(=O)OC)C4)C3)n2)c1` (centres unmarked) [Example 299-1a], the 50% inhibitory concentration (IC50) was under 100 nM.

Consider `CNCC(O)COc1cccc(-c2nc(NCC3(OC)CCOCC3)c(C)c(-c3c(C)noc3C)n2)c1` (centres unmarked) [Example 300-1a], for which the 50% inhibitory concentration (IC50) was under 100 nM.

On to `CNCC(O)COc1cccc(-c2nc(NCC3(N4CCC4)CCOCC3)c(C)c(-c3c(C)noc3C)n2)c1` (centres unmarked) [Example 301-1a], for which the half-maximal inhibitory concentration (IC50) is under 100 nM.

As for `CNCC(O)COc1cccc(-c2nc(NCC3(N4CC(F)(F)C4)CCOCC3)c(C)c(-c3c(C)noc3C)n2)c1` (centres unmarked) [Example 302-1a], the concentration for half-maximal inhibition (IC50) is under 100 nM.

Turning to `CNCC(O)COc1cccc(-c2nc(OCC3CCN(C4CC4)CC3)c(C)c(-c3c(C)noc3C)n2)c1` (centres unmarked) [Example 303-1a], the IC50 is under 100 nM.

Consider `CNC[C@H](O)COc1ccc(Cl)c(-c2nc(NC3CCN(C(=O)OC)CC3)c(Cl)c(-c3c(C)noc3C)n2)c1` [Example 305-1a], for which the IC50 was under 100 nM.

Take `CNCC(O)COc1cccc(-c2nc(NC[C@@H]3CN(C(=O)OC)CCO3)c(C)c(-c3c(C)noc3C)n2)c1` (some centres unmarked) [Example 306-1a]: the IC50 was under 100 nM.

As for `CNCC(O)COc1cccc(-c2nc(N[C@@H]3CCNC3)c(C)c(-c3c(C)noc3C)n2)c1` (some centres unmarked) [Example 307-1a], the IC50 was under 100 nM.

In the case of `CNCC(O)COc1cccc(-c2nc(-c3c(C)noc3C)c(C)c(N(C)C)n2)c1` (centres unmarked) [Example 308-1a], the IC50 was under 100 nM.

With `CNCC(O)COc1cccc(-c2nc(-c3c(C)noc3C)c(C)c(N3CC4(CN(C(=O)N(C)C)C4)C3)n2)c1` (centres unmarked) [Example 309-1a], the half-maximal inhibitory concentration (IC50) was under 100 nM.

For `CNCC(O)COc1cc(Cl)cc(-c2nc(N[C@@H]3CCOC3)c(C)c(-c3ccncc3)n2)c1` (some centres unmarked) [Example 331-1a], the IC50 was under 100 nM.

As to `CNCC(O)COc1cccc(-c2nc(N[C@@H]3CCOC3)c(C)c(-c3ccncc3)n2)c1` (some centres unmarked) [Example 332-1a], the 50% inhibitory concentration (IC50) is under 100 nM.

Take `CNCC(O)COc1cc(Cl)cc(-c2nc(-c3ccncc3)c(C)c(N(C)[C@H]3CCOC3)n2)c1` (some centres unmarked) [Example 334-1a]: the IC50 is under 100 nM.

As to `CNCC(O)COc1cccc(-c2nc(NC3CCOC3)c(C)c(-c3cn(C)nn3)n2)c1` (centres unmarked) [Example 335-1a], the IC50 is under 100 nM.

For the molecule `CNCC(O)COc1cccc(-c2nc(N[C@@H]3CCOC3)c(C)c(-c3cn[nH]c3)n2)c1` (some centres unmarked) [Example 338-1a], the IC50 was under 100 nM.

Turning to `CNCC(O)COc1cccc(-c2nc(-c3ccncc3)c(C)c(N(C)[C@@H]3CCOC3)n2)c1` (some centres unmarked) [Example 339-1a], the IC50 is under 100 nM.

With `CNCC(O)COc1cccc(-c2nc(N[C@@H]3CCOC3)c(C)c(-c3cncc(C(=O)OC)c3)n2)c1` (some centres unmarked) [Example 340-1a], the half-maximal inhibitory concentration (IC50) is under 100 nM.

On to `CNCC(O)COc1cccc(-c2nc(N[C@@H]3CCOC3)c(C)c(-c3cncc(C#N)c3)n2)c1` (some centres unmarked) [Example 341-1a], for which the IC50 is under 100 nM.
